Assay results as given in US12162901B2, “N-acetylated sialic acids and related sialosides” (priority 2016, dated 2024).

Key:
[1] = target: T1, BiNanH2 (Bifidobacterium longum, UniProt A0ACD7UU12); assay: HPLC-based kinetic study of BiNanH2; format: biochemical, Bifidobacterium infantis; conditions: for kcat: BiNanH2, apparent, NaOAc buffer pH 5.0, 37° C., 10 min, spread and × 10^2 on wrapped line below; for activity of BiNanH2 towards the substrate: kinetic study, HPLC
T1 sequence (A0ACD7UU12 1-394): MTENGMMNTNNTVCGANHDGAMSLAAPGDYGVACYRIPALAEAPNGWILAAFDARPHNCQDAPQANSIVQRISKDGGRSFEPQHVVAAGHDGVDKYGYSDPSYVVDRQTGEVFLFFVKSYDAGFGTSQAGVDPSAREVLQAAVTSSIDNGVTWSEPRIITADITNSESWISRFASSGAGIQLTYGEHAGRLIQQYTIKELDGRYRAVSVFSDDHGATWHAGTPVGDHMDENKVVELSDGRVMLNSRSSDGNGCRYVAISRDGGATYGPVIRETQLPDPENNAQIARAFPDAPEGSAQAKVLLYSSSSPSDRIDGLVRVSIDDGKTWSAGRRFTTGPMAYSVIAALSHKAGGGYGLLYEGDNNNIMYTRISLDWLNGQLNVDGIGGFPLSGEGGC
Protocol: (§1) HPLC-based assays were carried out as described above for microtiter plate-based assays. The reactions were stopped by adding 40 μL of pre-chilled ethanol. The mixtures were then centrifuged and the supernatants were analyzed by Agilent 1290 Infinity HPLC system at 315 nm. […] A C18 reverse phase Rapid Resolution High Definition column (EclipsePlusC18 RRHD 1.8 μm, 2.1×50 mm, Agilent) was used for analyzing samples with Neu5Ac9NAcα2-3GalβpNP (2.1) or Neu5,9Ac2α2-6GalβpNP (2.20).
(§2) The reactions were stopped by adding 40 μL of pre-chilled ethanol. The mixtures were then centrifuged and the supernatants were analyzed by the HPLC system described above for HPLC-based assays. Apparent kinetic parameters were obtained by varying substrate concentrations from 0.1-40 mM (0.1, 0.2, 0.4, 1, 2, 4, 10, 20, and 40 mM) and fitting the data (the average values of duplicate assay results) into the Michaelis-Menten equation using Grafit 5.0.

[2] = target: T2, SpNanC (Streptococcus pneumoniae, UniProt A0A0H2UQE4); assay: HPLC-based kinetic study of SpNanC; format: biochemical; conditions: for kcat: SpNanC, apparent, MES buffer pH 6.5, 37° C., 10 min, spread and × 10^2 on wrapped line below
Protocol: as §1
as §2, with “After stopping the” for “The”, “reactions” for “reactions were stopped”, “ethanol, the” for “ethanol. The”, “were” for “were then”, “system as” for “system”, “above.” for “above for HPLC-based assays.”

[3] = target: T3, human cytosolic sialidase hNEU2 (Homo sapiens, UniProt Q9Y3R4); assay: Sialidase substrate specificity of Leg glycosides (HPLC/capillary electrophoresis), hNEU2; format: biochemical; conditions: 37° C., 16 hs, pH 5.0
T3 construct: made in house
T3 sequence (Q9Y3R4 whole entry): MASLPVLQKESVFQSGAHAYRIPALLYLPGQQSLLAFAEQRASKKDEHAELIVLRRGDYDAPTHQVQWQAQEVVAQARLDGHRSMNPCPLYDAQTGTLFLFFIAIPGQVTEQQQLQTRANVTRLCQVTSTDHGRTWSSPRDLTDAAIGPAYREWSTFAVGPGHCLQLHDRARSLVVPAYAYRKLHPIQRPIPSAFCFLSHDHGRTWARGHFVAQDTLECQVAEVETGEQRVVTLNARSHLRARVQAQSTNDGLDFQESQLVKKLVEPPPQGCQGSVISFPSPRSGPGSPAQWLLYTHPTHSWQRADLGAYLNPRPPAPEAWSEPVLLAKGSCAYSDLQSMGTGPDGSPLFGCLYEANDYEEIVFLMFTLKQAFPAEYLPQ

[4] = target: C. perfringens sialidase (CpNanH) (Clostridium perfringens, UniProt P10481); format: biochemical; conditions: 37° C., 16 hs, pH 5.0
[5] = target: T4, V. cholerae sialidase (Vibrio cholerae serotype O1, UniProt P0C6E9); assay: Sialidase substrate specificity of Leg glycosides (HPLC/capillary electrophoresis), V. cholerae sialidase; format: biochemical; conditions: pH 5.5
T4 construct: purchased Roche

[6] = target: T2, SpNanC; assay: Sialidase substrate specificity of Leg glycosides (HPLC/capillary electrophoresis), SpNanC; format: biochemical; conditions: 37° C., 16 hs, pH 6.5
[7] = target: T1, BiNanH2; assay: Sialidase substrate specificity of Leg glycosides (HPLC/capillary electrophoresis), BiNanH2; format: biochemical, Bifidobacterium infantis; conditions: 37° C., 16 hs, pH 5.0
[8] = system: A. ureafaciens sialidase; assay: Sialidase substrate specificity of Leg glycosides (HPLC/capillary electrophoresis), A. ureafaciens sialidase; format: biochemical, Arthrobacter ureafaciens; conditions: pH 5.5
[9] = target: T5, SpNanB (Streptococcus pneumoniae serotype 4, UniProt Q54727, E68D/K536E/K577E/N393D/S59P); assay: Sialidase substrate specificity of Leg glycosides (HPLC/capillary electrophoresis), SpNanB; format: biochemical; conditions: 37° C., 16 hs, pH 6.0
T5 construct: made in house

[10] = target: T6, SpNanA (Streptococcus pneumoniae, UniProt P62575); assay: Sialidase substrate specificity of Leg glycosides (HPLC/capillary electrophoresis), SpNanA; format: biochemical; conditions: 37° C., 16 hs, pH 6.0
T6 construct: made in house

[11] = substrate: CC(=O)N[C@@H]1C(O)C[C@](OC2C(O)[C@H](Oc3ccc([N+](=O)[O-])cc3)OC(CO)[C@@H]2O)(C(=O)O)OC1[C@H](NC(C)=O)[C@@H](C)O; assay: Kinetic studies for PmST1 α2-3-sialidase activity (HPLC); format: biochemical, Pasteurella multocida; conditions: other: PmST1, apparent, NaOAc buffer pH 5.5, CMP (0.4 mM), 37° C., 10 min
Protocol: as §2, with “Kinetic studies for PmST1 were performed in duplicates at 37° C. for 10 min. […] The reactions” for “The reactions”, “by adding 20 μL of” for “by adding 40 μL of”, “above for sialidase substrate specificity studies assays. Apparent” for “above for HPLC-based assays. Apparent”

[12] = substrate: CC(=O)N[C@H]1[C@H]([C@H](O)[C@H](O)CO)O[C@@](O[C@H]2[C@@H](O)[C@@H](CO)O[C@@H](Oc3ccc([N+](=O)[O-])cc3)[C@@H]2O)(C(=O)O)C[C@@H]1O; assay: as above; format: biochemical, Pasteurella multocida; conditions: other: PmST1, apparent, NaOAc buffer pH 5.5, CMP (0.4 mM), 37° C., 10 min
Protocol: as §2, with “Kinetic studies for PmST1 were performed in duplicates at 37° C. for 10 min. […] The reactions” for “The reactions”, “by adding 20 μL of” for “by adding 40 μL of”, “above for sialidase substrate specificity studies assays. Apparent” for “above for HPLC-based assays. Apparent”

CC(=O)NC[C@@H](O)[C@@H](O)[C@@H]1O[C@@](O[C@H]2[C@@H](O)[C@@H](CO)O[C@@H](Oc3ccc([N+](=O)[O-])cc3)[C@@H]2O)(C(=O)O)C[C@H](O)[C@H]1NC(C)=O [2.1, 4-Nitrophenyl O-(5,9-diacetamido-3,5,9-trideoxy-D-glycero-α-D-galacto-2-nonulopyranosylonic acid)-(2→3)-O-β-D-galactopyranoside]
kcat [1]: (1.08 × 10^2 s^−1
kcat [2]: (3.38 × 10^2 s^−1

CC(=O)NC[C@@H](O)[C@@H](O)[C@@H]1O[C@@](OC[C@H]2O[C@@H](Oc3ccc([N+](=O)[O-])cc3)[C@H](O)[C@@H](O)[C@H]2O)(C(=O)O)C[C@H](O)[C@H]1NC(C)=O [2.8, 4-Nitrophenyl O-(5,9-diacetamido-3,5,9-trideoxy-D-glycero-α-D-galacto-2-nonulopyranosylonic acid)-(2→6)-O-β-D-galactopyranoside]
kcat [1]: (8.07 × 10^2 s^−1

CC(=O)N[C@H]1[C@H]([C@H](O)[C@H](O)CO)O[C@@](O[C@H]2[C@@H](O)[C@@H](CO)O[C@@H](Oc3ccc([N+](=O)[O-])cc3)[C@@H]2O)(C(=O)O)C[C@@H]1O [2.17, Neu5Acα2-3GalβpNP]
kcat [1]: (1.66 × 10^2 s^−1
kcat [2]: (3.65 × 10^2 s^−1

CC(=O)N[C@H]1[C@H]([C@H](O)[C@H](O)CO)O[C@@](OC[C@H]2O[C@@H](Oc3ccc([N+](=O)[O-])cc3)[C@H](O)[C@@H](O)[C@H]2O)(C(=O)O)C[C@@H]1O [2.18, Neu5Acα2-6GalβpNP]
kcat [1]: (3.31 × 10^2 s^−1

CC(=O)N[C@H]1[C@H]([C@H](O)[C@H](O)COC(C)=O)O[C@@](O[C@H]2[C@@H](O)[C@@H](CO)O[C@@H](Oc3ccc([N+](=O)[O-])cc3)[C@@H]2O)(C(=O)O)C[C@@H]1O [2.19, Neu5,9Ac2α2-3GalβpNP]
activity of BiNanH2 towards the substrate [1]: not high enough for obtaining apparent kinetics parameters
catalytic efficiency of SpNanC, fold higher than for 2.1 and 2.17 ([2]; SpNanC kcat/KM ratio): 2.2-2.3 fold
kcat [2]: (3.78 × 10^2 s^−1

CC(=O)NC1C(O)CC(OCC2OC(Oc3ccc([N+](=O)[O-])cc3)C(O)C(O)C2O)(C(=O)O)OC1C(O)C(O)COC(C)=O (stereo not drawn) [2.20, Neu5,9Ac2α2-6GalβpNP]
activity of BiNanH2 towards the substrate [1]: not high enough for obtaining apparent kinetics parameters

C[C@@H](O)[C@@H](N=[N+]=[N-])C1O[C@@](OCC2O[C@@H](Oc3ccc([N+](=O)[O-])cc3)C(O)C(O)[C@H]2O)(C(=O)O)CC(O)[C@H]1N=[N+]=[N-] (stereo partly drawn) [3-14, Leg5,7diN3α2-6GalβpNP]
activity of hNEU2 for the compound [3]: did not show activity
activity of C. perfringens sialidase (CpNanH) for the compound [4]: did not show activity
activity of V. cholerae sialidase for the compound [5]: did not show activity
activity of SpNanC for the compound [6]: did not show activity
activity of BiNanH2 for the compound [7]: did not show activity
activity of A. ureafaciens sialidase for the compound [8]: did not show activity
activity of SpNanB for the compound [9]: did not show activity
activity of SpNanA for the compound [10]: did not show activity

CC(=O)N[C@@H]1C(O)C[C@](OCC2O[C@@H](Oc3ccc([N+](=O)[O-])cc3)C(O)C(O)[C@H]2O)(C(=O)O)OC1[C@H](NC(C)=O)[C@@H](C)O (stereo partly drawn) [3-20, Leg5,7Ac2α2-6GalβpNP]
activity of hNEU2 for the compound [3]: did not show activity
activity of C. perfringens sialidase (CpNanH) for the compound [4]: did not show activity
activity of V. cholerae sialidase for the compound [5]: did not show activity
activity of SpNanC for the compound [6]: did not show activity
activity of BiNanH2 for the compound [7]: did not show activity
activity of A. ureafaciens sialidase for the compound [8]: did not show activity
activity of SpNanB for the compound [9]: did not show activity
activity of SpNanA for the compound [10]: did not show activity

B1: PmST1 (α2-3-sialidase activity) (Pasteurella multocida) (protein)
chain: KTITLYLDPASLPALNQLMDFTQNNEDKTHPRIFGLSRFKIPDNIITQYQNIHFVELKDNRPTEALFTILDQYPGNIELNIHLNIAHSVQLIRPILAYRFKHLDRVSIQQLNLYDDGSMEYVDLEKEENKDISAEIKQAEKQLSHYLLTGKIKFDNPTIARYVWQSAFPVKYHFLSTDYFEKAEFLQPLKEYLAENYQKMDWTAYQQLTPEQQAFYLTLVGFNDEVKQSLEVQQAKFIFTGTTTWEGNTDVREYYAQQQLNLLNHFTQAEGDLFIGDHYKIYFKGHPRGGEINDYILNNAKNITNIPANISFEVLMMTGLLPDKVGGVASSLYFSLPKEKISHIIFTSNKQVKSKEDALNNPYVKVMRRLGIIDESQVIFWDSLKQL
Km [11]: 17.38 ± 0.70 mM
kcat [11]: 1.16 ± 0.0217 s⁻¹
kcat/Km [11]: 66.7 M⁻¹ s⁻¹
Km [12]: 4.73 ± 0.31 mM
kcat [12]: 9.26 ± 0.185 s⁻¹
kcat/Km [12]: 1950 M⁻¹ s⁻¹
